The source of these data is patent US20230219251A1, “MULTIFUNCTIONAL WOOD PRESERVATIVE COMPOSITION AND WOOD PRESERVATION TREATMENT METHOD USING THE SAME” (KOREA INSTITUTE OF SCIENCE AND TECHNOLOGY, priority 2022, published 2023).

For data set [1] the following is noted: cited from earlier work.
The subject of a further data set is Coptotermes formosanus. To be noted: cited from earlier work.
A further data set relates to Reticulitermes speratus. To be noted: cited from earlier work.
In a further data set the test system is rot fungi. To be noted: cited from earlier work.
The next data set deals with wood-boring insects. To be noted: cited from earlier work.
For data set [2] the following is noted: 30 wt % BAE; one day after completion of the reaction. As to the method:
Hydrazine borates (#1 to #6) were synthesized by varying the amounts of boric acid (BA) and hydrazine hydrate (HH) while fixing the boric acid equivalent (BAE) level to 30 wt %.
(§1) Specifically, 150 g of BA was added, and HH was added at ratios shown in Table 1 after addition of water (distilled water), followed by reaction at a temperature of each reaction solution of 60° C. The termination time point of the reaction was when the solution became a transparent solution. The degree of precipitation was analyzed one day after the completion of the reaction.

The nature of data set [3]: pH of the prepared solutions. In kind it is physicochemical. As to the method:
as §1
Hydrazine borates (#7 to #11) with different BAE levels were synthesized by varying the amounts of BA and HH. Specifically, BA was added at proportions shown in Table 3 below, and water was added and HH was added, followed by reaction at a temperature of each reaction solution of 60° C. Then, the termination time point of the reaction was when the solution became a transparent solution. The degree of precipitation was analyzed one month after the completion of the reaction.

A short description of data set [4]: Test on dilution stability.
Description: The precipitation or lack thereof over time was visually observed while the tube was shaken every 6 hours, and the results are shown in Table 14.
[5] abbreviates: reaction solutions of Example 1, 30 wt % BAE.
Setting [6] is: reaction solutions of Example 2, 40-71 wt % BAE.

On to `N.O=BOB1OB2OB(O)OB(O1)O2` [ammonium pentaborate (APB), ammonium pentaborate], for which the “BAE at room temperature” value in data set [1] is given as 10.6 % BAE.
`O.O.O.O.O=BOB1OB(OB=O)OB2OB([O-])OB([O-])OB(O1)O2.[Na+].[Na+]` [disodium octaborate tetrahydrate (DOT), disodium octaborate tetrahydrate]: the “BAE at room temperature” value in data set [1] is given as 11.6 % BAE.
For the compound borate, the Toxicity titer in the data set with Coptotermes formosanus is 3.0 kg/m^3 BAE; in the data set with Reticulitermes speratus, less than 3.0 kg/m^3 BAE; in the data set on rot fungi, 1.0-1.5 kg/m^3 BAE; in the data set with wood-boring insects, 1.2 kg/m^3 BAE.
For “dilithium octaborate [dilithium octaborate (LOB)]”, the “BAE at room temperature” value in data set [1] is 24.1 % BAE.
In the case of hydrazine borate [#1], the “Appearance of the solution / precipitate formation” value in data set [2] is reported as “transparent solutions”. In data set [3] (setting [5]), this compound had a pH of 9.50.
As to hydrazine borate [#2], the “Appearance of the solution / precipitate formation” value in data set [2] is recorded as “transparent solutions”. The compound further gave a pH in data set [3] (setting [5]) of 8.42.
In data set [3] (setting [5]), hydrazine borate [#3] yielded a pH of 7.45.
Same read-out and setting: the same measure for hydrazine borate [#4]: 6.13; for hydrazine borate [#5]: 6.33; for hydrazine borate [#6]: 6.59.
With hydrazine borate [#7], the pH in data set [3] (setting [6]) amounted to 8.45.
Regarding hydrazine borate [#8], the pH in data set [3] (setting [6]) was 8.42. Further, the Precipitation over time result in data set [4] (diluted 1:1 in distilled water, 1 Days) is reported as “N”; in data set [4] (diluted 1:1 in distilled water, 3 Days), “N”; in data set [4] (diluted 1:1 in distilled water, 5 Days) it was “N”; in data set [4] (diluted 1:1 in distilled water, 7 Days) it was “N”; in data set [4] (diluted 2:1 in distilled water, 1 Days), “N”; in data set [4] (diluted 2:1 in distilled water, 3 Days), “N”. The Precipitation over time entry in data set [4] (diluted 2:1 in distilled water, 5 Days) is listed as “N”; in data set [4] (diluted 2:1 in distilled water, 7 Days) it was “N”; in data set [4] (diluted 3:1 in distilled water, 1 Days) it was “N”; in data set [4] (diluted 3:1 in distilled water, 3 Days) it was “N”; in data set [4] (diluted 3:1 in distilled water, 5 Days), “N”; in data set [4] (diluted 3:1 in distilled water, 7 Days), “N”.
Compound hydrazine borate [#9] came in with a pH in data set [3] (setting [6]) of 8.41.
Same read-out and setting: then hydrazine borate [#10], with 8.40; and hydrazine borate [#11], with 8.37.
